The values below are quoted from earlier work in patent US20080234335A1, “Cyclohexene Compounds” (priority 2003, published 2008).

In series [1] the target is T1, EP1 receptor (Rattus norvegicus, UniProt P70597).
T1 sequence (P70597 1-405): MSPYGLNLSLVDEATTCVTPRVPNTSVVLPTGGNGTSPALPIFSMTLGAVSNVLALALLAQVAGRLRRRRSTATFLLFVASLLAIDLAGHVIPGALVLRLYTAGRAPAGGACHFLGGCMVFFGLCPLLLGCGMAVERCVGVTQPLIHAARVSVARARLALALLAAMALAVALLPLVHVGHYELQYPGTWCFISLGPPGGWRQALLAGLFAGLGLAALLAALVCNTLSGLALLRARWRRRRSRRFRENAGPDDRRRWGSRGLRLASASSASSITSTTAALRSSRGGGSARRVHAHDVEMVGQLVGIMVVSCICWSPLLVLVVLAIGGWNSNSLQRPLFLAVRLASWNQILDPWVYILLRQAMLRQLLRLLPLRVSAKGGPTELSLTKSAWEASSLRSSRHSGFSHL
Details: host or cells: live rodent (in vivo). As to conditions: rodent model of post-operative pain.

Series [2] deals with T1, EP1 receptor. Details: host or cells: live rat (in vivo). Particulars: rat model of chronic constriction injury.

As to `Cc1cc(Cl)ccc1S(=O)(=O)NC[C@H]1C2CCC(CC2)[C@@H]1/C=C\CCCC(=O)O` [ONO-8711], the “effect on mechanical hyperalgesia” value in series [1] is given as “inhibits mechanical hyperalgesia”. Further, the “effect on hyperalgesia and allodynia” value in series [2] is “reduces hyperalgesia and allodynia”.
